# Tests used:
# Assay in all cases: relative viability (nuclei count vs DMSO), 5 days (fraction); higher = more cells survive
# NCI-H1563 = tested on: NCI-H1563
# Outline: (§1)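 For relative viability, nuclei counts in treated wells were divided by those in vehicle wells. Lung cancer cell lines had been pin-tool dosed in 1536-well plates the day after seeding and cultured for 5 days, then fixed and stained in one step (final 0.05% Triton X-100, 1% formaldehyde, 1 ug/ml Hoechst) and imaged at 4×. Doses were one drug alone or a fixed anchor-drug dose plus five library-drug doses (not always all listed) in √10 steps, and values are duplicate-plate medians.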
# ABC-1 = tested on: ABC-1
# Outline: as §1
# NCI-H520 = tested on: NCI-H520
# Outline: as §1
# NCI-H1734 = tested on: NCI-H1734
# Outline: as §1
# H3255 = tested on: H3255
# Outline: as §1
# PC-14 = tested on: PC-14
# Outline: as §1
# NCI-H1650 = tested on: NCI-H1650
# Outline: as §1
# EKVX = tested on: EKVX
# Outline: as §1
# RERF-LC-KJ = tested on: RERF-LC-KJ
# Outline: as §1
# LK-2 = tested on: LK-2
# Outline: as §1
# SW 1573 = tested on: SW 1573
# Outline: as §1
# NCI-H1437 = tested on: NCI-H1437
# Outline: as §1
# NCI-H2228 = tested on: NCI-H2228
# Outline: as §1
# NCI-H2405 = tested on: NCI-H2405
# Outline: as §1
# PC-3 [JPC-3] = tested on: PC-3 [JPC-3]
# Outline: as §1
# HCC-15 = tested on: HCC-15
# Outline: as §1
# NCI-H322M = tested on: NCI-H322M
# Outline: as §1
# HCC-827 = tested on: HCC-827
# Outline: as §1
# NCI-H661 = tested on: NCI-H661
# Outline: as §1
# CAL-12T = tested on: CAL-12T
# Outline: as §1
# COR-L23 = tested on: COR-L23
# Outline: as §1
# NCI-H1355 = tested on: NCI-H1355
# Outline: as §1
compound,measurement,setting,value
NC(=O)Nc1cc(-c2cccc(F)c2)sc1C(=O)N[C@H]1CCCNC1 [AZD7762] + C[C@@H](Oc1cc(-c2cnn(C3CCNCC3)c2)cnc1N)c1c(Cl)ccc(F)c1Cl [Crizotinib] (partner 1 µM),relative viability,NCI-H1563; first compound 0.01 µM,0.957
same,relative viability,NCI-H1563; first compound 0.03162 µM,0.833
same,relative viability,NCI-H1563; first compound 0.1 µM,0.872
same,relative viability,NCI-H1563; first compound 0.3162 µM,0.889
same,relative viability,NCI-H1563; first compound 1 µM,0.741
same,relative viability,ABC-1; first compound 0.01 µM,1.1
same,relative viability,ABC-1; first compound 0.03162 µM,1.56
same,relative viability,ABC-1; first compound 0.1 µM,0.842
same,relative viability,ABC-1; first compound 0.3162 µM,0.49
same,relative viability,ABC-1; first compound 1 µM,0.13
same,relative viability,NCI-H520; first compound 0.01 µM,0.975
same,relative viability,NCI-H520; first compound 0.03162 µM,0.692
same,relative viability,NCI-H520; first compound 0.1 µM,0.477
same,relative viability,NCI-H520; first compound 0.3162 µM,0.504
same,relative viability,NCI-H520; first compound 1 µM,0.276
same,relative viability,NCI-H1734; first compound 0.01 µM,0.837
same,relative viability,NCI-H1734; first compound 0.03162 µM,0.676
same,relative viability,NCI-H1734; first compound 0.1 µM,0.869
same,relative viability,NCI-H1734; first compound 0.3162 µM,0.612
same,relative viability,NCI-H1734; first compound 1 µM,0.458
same,relative viability,H3255; first compound 0.01 µM,0.997
same,relative viability,H3255; first compound 0.03162 µM,0.88
same,relative viability,H3255; first compound 0.1 µM,0.891
same,relative viability,H3255; first compound 0.3162 µM,0.867
same,relative viability,H3255; first compound 1 µM,0.42
same,relative viability,PC-14; first compound 0.01 µM,0.943
same,relative viability,PC-14; first compound 0.03162 µM,0.859
same,relative viability,PC-14; first compound 0.1 µM,0.922
same,relative viability,PC-14; first compound 0.3162 µM,0.81
same,relative viability,PC-14; first compound 1 µM,0.41
same,relative viability,NCI-H1650; first compound 0.01 µM,1.18
same,relative viability,NCI-H1650; first compound 0.03162 µM,1.03
same,relative viability,NCI-H1650; first compound 0.1 µM,0.864
same,relative viability,NCI-H1650; first compound 0.3162 µM,0.603
same,relative viability,NCI-H1650; first compound 1 µM,0.207
same,relative viability,EKVX; first compound 0.01 µM,0.875
same,relative viability,EKVX; first compound 0.03162 µM,1.03
same,relative viability,EKVX; first compound 0.1 µM,0.874
same,relative viability,EKVX; first compound 0.3162 µM,0.798
same,relative viability,EKVX; first compound 1 µM,0.412
same,relative viability,RERF-LC-KJ; first compound 0.01 µM,0.897
same,relative viability,RERF-LC-KJ; first compound 0.03162 µM,0.894
same,relative viability,RERF-LC-KJ; first compound 0.1 µM,0.777
same,relative viability,RERF-LC-KJ; first compound 0.3162 µM,0.809
same,relative viability,RERF-LC-KJ; first compound 1 µM,0.742
same,relative viability,LK-2; first compound 0.01 µM,0.203
same,relative viability,LK-2; first compound 0.03162 µM,0.221
same,relative viability,LK-2; first compound 0.1 µM,0.225
same,relative viability,LK-2; first compound 0.3162 µM,0.203
same,relative viability,LK-2; first compound 1 µM,0.228
same,relative viability,SW 1573; first compound 0.01 µM,0.976
same,relative viability,SW 1573; first compound 0.03162 µM,0.879
same,relative viability,SW 1573; first compound 0.1 µM,0.907
same,relative viability,SW 1573; first compound 0.3162 µM,0.934
same,relative viability,SW 1573; first compound 1 µM,0.738
same,relative viability,NCI-H1437; first compound 0.01 µM,0.955
same,relative viability,NCI-H1437; first compound 0.03162 µM,0.787
same,relative viability,NCI-H1437; first compound 0.1 µM,1.01
same,relative viability,NCI-H1437; first compound 0.3162 µM,0.869
same,relative viability,NCI-H1437; first compound 1 µM,1.02
same,relative viability,NCI-H2228; first compound 0.01 µM,0.423
same,relative viability,NCI-H2228; first compound 0.03162 µM,0.588
same,relative viability,NCI-H2228; first compound 0.1 µM,0.461
same,relative viability,NCI-H2228; first compound 0.3162 µM,0.436
same,relative viability,NCI-H2228; first compound 1 µM,0.208
same,relative viability,NCI-H2405; first compound 0.01 µM,0.94
same,relative viability,NCI-H2405; first compound 0.03162 µM,0.802
same,relative viability,NCI-H2405; first compound 0.1 µM,0.841
same,relative viability,NCI-H2405; first compound 0.3162 µM,0.819
same,relative viability,NCI-H2405; first compound 1 µM,0.398
same,relative viability,PC-3 [JPC-3]; first compound 0.01 µM,0.999
same,relative viability,PC-3 [JPC-3]; first compound 0.03162 µM,0.962
same,relative viability,PC-3 [JPC-3]; first compound 0.1 µM,1.01
same,relative viability,PC-3 [JPC-3]; first compound 0.3162 µM,1.02
same,relative viability,PC-3 [JPC-3]; first compound 1 µM,0.903
same,relative viability,HCC-15; first compound 0.01 µM,0.948
same,relative viability,HCC-15; first compound 0.03162 µM,0.776
same,relative viability,HCC-15; first compound 0.1 µM,0.818
same,relative viability,HCC-15; first compound 0.3162 µM,0.774
same,relative viability,HCC-15; first compound 1 µM,0.825
same,relative viability,NCI-H322M; first compound 0.01 µM,1.04
same,relative viability,NCI-H322M; first compound 0.03162 µM,0.845
same,relative viability,NCI-H322M; first compound 0.1 µM,0.883
same,relative viability,NCI-H322M; first compound 0.3162 µM,0.962
same,relative viability,NCI-H322M; first compound 1 µM,0.417
same,relative viability,HCC-827; first compound 0.01 µM,0.948
same,relative viability,HCC-827; first compound 0.03162 µM,0.904
same,relative viability,HCC-827; first compound 0.1 µM,0.933
same,relative viability,HCC-827; first compound 0.3162 µM,0.965
same,relative viability,HCC-827; first compound 1 µM,0.843
same,relative viability,NCI-H661; first compound 0.01 µM,0.952
same,relative viability,NCI-H661; first compound 0.03162 µM,0.87
same,relative viability,NCI-H661; first compound 0.1 µM,1.08
same,relative viability,NCI-H661; first compound 0.3162 µM,0.99
same,relative viability,NCI-H661; first compound 1 µM,0.886
same,relative viability,CAL-12T; first compound 0.01 µM,0.735
same,relative viability,CAL-12T; first compound 0.03162 µM,0.554
same,relative viability,CAL-12T; first compound 0.1 µM,0.486
same,relative viability,CAL-12T; first compound 0.3162 µM,0.33
same,relative viability,CAL-12T; first compound 1 µM,0.105
same,relative viability,COR-L23; first compound 0.01 µM,0.775
same,relative viability,COR-L23; first compound 0.03162 µM,0.656
same,relative viability,COR-L23; first compound 0.1 µM,0.616
same,relative viability,COR-L23; first compound 0.3162 µM,0.45
same,relative viability,COR-L23; first compound 1 µM,0.117
same,relative viability,NCI-H1355; first compound 0.01 µM,1.02
same,relative viability,NCI-H1355; first compound 0.03162 µM,1.02
same,relative viability,NCI-H1355; first compound 0.1 µM,1.01
same,relative viability,NCI-H1355; first compound 0.3162 µM,1.14
same,relative viability,NCI-H1355; first compound 1 µM,1.03

# From the supplement of paper PMC10307832
